Data: patent US20170275249A1, “SMALL LIPOPEPTIDOMIMETIC INHIBITORS OF GHRELIN O-ACYL TRANSFERASE” (THE REGENTS OF THE UNIVERSITY OF CALIFORNIA, priority 2014, published 2017)
Read-outs that look alike come from different tables or passages of the source.

Key:
mouse GOAT = target: T1, mouse GOAT (Mus musculus, UniProt P0C7A3); experiment: ghrelin radio-octanoylation assay (Yang et al.), Sf9 membrane fractions; format: biochemical; conditions: for GOAT-inhibiting activity in vitro: relative to Compound 1
T1 construct: made in house; host or cells: Sf9 insect cells (baculovirus), membrane fractions
T1 sequence (P0C7A3 1-435): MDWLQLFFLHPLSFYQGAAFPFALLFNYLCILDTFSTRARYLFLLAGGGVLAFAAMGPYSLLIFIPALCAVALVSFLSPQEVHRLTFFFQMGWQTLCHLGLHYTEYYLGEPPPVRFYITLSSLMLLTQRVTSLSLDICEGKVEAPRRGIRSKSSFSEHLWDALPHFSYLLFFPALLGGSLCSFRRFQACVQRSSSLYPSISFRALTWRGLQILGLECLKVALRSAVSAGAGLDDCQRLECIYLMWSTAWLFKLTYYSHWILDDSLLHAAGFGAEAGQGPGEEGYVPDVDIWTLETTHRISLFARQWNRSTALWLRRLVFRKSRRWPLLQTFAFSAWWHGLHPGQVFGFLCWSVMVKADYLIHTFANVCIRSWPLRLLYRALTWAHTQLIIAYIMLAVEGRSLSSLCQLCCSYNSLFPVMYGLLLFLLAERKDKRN
Method: In vitro activity was quantified using the octanoylation assay developed by Yang et al. (2008, Proc. Natl. Acad. Sci. USA 105:10750-10755). No pure or soluble form of GOAT that retains enzymatic activity is thus far available. Recombinant poly-His-tagged ghrelin was incubated with radiolabeled octanoyl CoA and membrane fractions isolated from Sf9 cells infected with a GOAT-encoding baculovirus. Recovery of acyl- and des-acyl ghrelin using a Ni^2+ affinity column was followed by scintillation counting to determine the extent of acyltransferase activity, which was reported as a percentage of control.
Thiosarcosine derived peptidomimetic Compound 1 (of Example 1.1) and truncated analog Compound 2 (of Example 1.2), which served as a negative control, were screened for GOAT-inhibiting activity using membrane fractions prepared from Sf9 cells infected with baculovirus encoding mouse GOAT as a source of the acyltransferase. The assay detected specific acyl transfer from tritiated octanoyl-CoA to recombinant His-tagged proghrelin.

[1] = tested on: GOAT/preproghrelin-expressing INS-1 cells; experiment: acyl ghrelin production in intact cells, Western immunoblot; format: cell-based; conditions: 18 hours incubation
Method: Molecular parameters for Compound 1 were well within those characteristics of orally bioavailable drugs. In INS-1 cell culture, compounds were administered to cultured INS-1 cells that had been engineered to express GOAT and preproghrelin. After incubating the cells in the presence of the compounds for 18 hours, the cells were lysed and ghrelin species (acyl ghrelin vs. total ghrelin) present in the lysates were quantified by Western immunoblot. […] Total ghrelin levels were unchanged irrespective of the inhibitor concentration that was present.

[2] = mouse plasma
Method: (§1) (Taylor, M. S. et al., 2012, Methods in Enzymology 514:205-228.) For in vitro as well as in vivo pharmacokinetic analyses, inhibitor concentration was determined using LC/MS/MS.
(§2) GOAT inhibitor (Compound 1) and control (Compound 2) were added to liver S9 fractions or mouse plasma and the concentrations of each compound over time were quantified using LC/MS/MS.

[3] = human
Method: as §1, §2

[4] = tested on: acyl ghrelin : total ghrelin ratio in serum; experiment: time course of serum acyl ghrelin after IP administration; format: in vivo; conditions: mice, 80 mg/kg IP, FIG. 3
Method: Compound 1 was administered intraperitoneally (IP) to mice (dosed at 80 mg/kg) at time zero and blood samples were collected at indicated timepoints (see FIG. 3). Serum acyl ghrelin: total ghrelin ratios were determined using ELISA with antibodies specific for acyl or des-acyl ghrelin. Inhibitor concentrations were determined using LC/MS/MS detection. […] Reappearance of acyl-ghrelin tracked with the time-dependent change in inhibitor concentration in plasma.

measured LogD = format: physicochemical
oral bioavailability = format: in vivo
[5] = stability in mouse plasma (LC/MS/MS)
Method: as §1, §2

[6] = stability in liver S9 fractions (LC/MS/MS); conditions: human liver S9 fractions
Method: as §1, §2

[7] = Table 1, inhibitory activity against GOAT, cells printed in nM

## CCCC[C@H]1C[C@H](C(=O)NC[C@H]2CCCN2C(=O)[C@@H](NC(=S)CN)C(C)(C)C)C1 [Entry 26]
Mouse GOAT; [7]
  IC50: 25 nM

## CCCC[C@H]1C[C@H](C(=S)NC[C@H]2CCCN2C(=O)[C@@H](NC(=S)CN)C(C)(C)C)C1 [Entry 16, (1s,3R)—N—(((R)-1-((S)-2-(2-AMINOETHANETHIOAMIDO)-3,3-DIMETHYLBUTANOYL)PYRROLIDIN-2-YL)METHYL)-3-BUTYLCYCLOBUTANECARBOTHIOAMIDE]
Mouse GOAT; [7]
  IC50: 200 nM

## C=CCOC(=O)NCC(=S)N[C@H](C(=O)N1CCC[C@@H]1CNC(=S)C1CC(CCCC)C1)C(C)(C)C (some centres unmarked) [Entry 15]
Mouse GOAT; [7]
  IC50: > 3000 nM

## CCCC[C@H]1C[C@@H](C(=O)NC[C@H]2CCCN2C(=O)[C@@H](NC(=N)CN)C2CCCCC2)C1 [Entry 7]
Mouse GOAT; [7]
  IC50: > 3000 nM

## CCCCC1CC(C(=S)NC[C@H]2CCCN2C(=O)[C@@H](NC(=S)CN)C(C)(C)C)C1 (stereo partly drawn) [inhibitor 10, (1s,3R)—N—(((R)-1-((S)-2-(2-AMINOETHANETHIOAMIDO)-3,3-DIMETHYLBUTANOYL)PYRROLIDIN-2-YL)METHYL)-3-BUTYLCYCLOBUTANECARBO-THIOAMIDE HEMITARTRATE]
Mouse GOAT
  GOAT-inhibiting activity in vitro: equally potent

## CCCCC1CC(C(=O)NC[C@H]2CCCN2C(=O)[C@@H](N)C(C)(C)C)C1 (some centres unmarked) [Entry 2]
Mouse GOAT; [7]
  IC50: > 3000 nM

## CCCC[C@H]1C[C@@H](C(=O)NCCN(C)C(=O)[C@@H](NC(=O)CN)C2CCCCC2)C1 [Entry 1]
Mouse GOAT; [7]
  IC50: 2000 nM

## CCCCC1CC(C(=O)NC[C@H]2CCCN2C(=O)[C@@H](N)C(C)(C)C)C1.CCCCC1CC(C(=O)NC[C@H]2CCCN2C(=O)[C@@H](N)C(C)(C)C)C1.O=C(O)C(O)C(O)C(=O)O (stereo partly drawn) [Compound 2, (1s,3R)—N—(((R)-1-((S)-2-AMINO-3,3-DIMETHYLBUTANOYL)PYRROLIDIN-2-YL)METHYL)-3-BUTYLCYCLOBUTANECARBOXAMIDE HEMITARTRATE]
Mouse GOAT
  GOAT-inhibiting activity in vitro: inactive
[1]; FIG. 4
  inhibition of acyl ghrelin biosynthesis: inactive
[2]
  Plasma t1/2: 1.52 h
[3]
  Liver S9 t1/2: 2.08 h

## (1s,3R)-3-BUTYL-N—(((R)-1-((S)-3,3-DIMETHYL-2-(2-(METHYLAMINO)ETHANETHIOAMIDO)BUTANOYL)PYRROLIDIN-2-YL)METHYL)CYCLOBUTANE CARBOXAMIDE HEMITARTRATE [Compound 1]
Mouse GOAT; FIG. 2, tritiated octanoyl-CoA, His-tagged proghrelin
  IC50: ~30 nM
Mouse GOAT; FIG. 6, versus compounds 3, 4, 5 and 6
  potency compared side-by-side with prior art GOAT inhibitors: by far the most potent inhibitor of GOAT
[4]
  time at which acyl-ghrelin recovered: 3 h
[4]; within minutes
  acyl-ghrelin in circulation: near undetectable levels
Measured LogD
  Measured LogD: 1.71
[1]; FIG. 4
  concentration at which production of acyl ghrelin was inhibited: greater than 1 μM
  concentration at which production of acyl ghrelin was substantially completely blocked: above 5 μM
[1]; irrespective of inhibitor concentration
  total ghrelin levels: unchanged
Oral bioavailability
  oral bioavailability % F: 10-15%
[5]
  Plasma t1/2: >10.5 h
  stability in mouse plasma: stable
[6]
  Liver S9 t1/2: 2.03 h
  metabolism by liver S9 fractions: slowly metabolized

## CCCC[C@H]1C[C@@H](C(=O)NC[C@H]2CCCN2C(=O)[C@@H](N)C2CCCCC2)C1 [Entry 9]
Mouse GOAT; [7]
  IC50: > 3000 nM

## CCCC[C@H]1C[C@@H](C(=S)NC[C@H]2CCCN2C(=O)[C@@H](NC(=O)CN)C2CCCCC2)C1 [Entry 20]
Mouse GOAT; [7]
  IC50: 650 nM
